Laboratory results taken from US20260242320A1, “USE OF CANNABIDIOL DERIVATIVE IN PREPARATION OF MEDICAMENT” (priority 2023, published 2026).
“Also recorded” adds a separate entry of the source.

Tests used:
Open field test = type: in vivo, mice; conditions: 20 mg/kg i.p., seven consecutive days
Protocol: After two days of habitation, each mouse was placed in the open field, and the moving distances within 1 h and the grooming and rubbing numbers within the first 15 min was recorded as vehicle control (pre-test group). Next, each mouse was administered CIAC001 (20 mg/kg; i.p.) once daily for 7 days. 24 h after the last administration, the moving distances and the grooming and rubbing numbers were measured again to compare changes before and after CIAC001 treatment.

CB1 Receptor = target: T1, CB1 Receptor (Homo sapiens, UniProt P21554); experiment: cAMP measurement, forskolin-induced cAMP accumulation, CB1; type: cell-based; conditions: cAMP assay
T1 construct: expressed in transfected cells; host or cells: GloSensor 22-F HEK293 cells
Protocol: GloSensor 22-F HEK293 cells were transfected with plasmids encoding different receptors (CB1 and CB2). After 24 h, HEK293 cells were seeded at a density of 5×10^4 cells per well in 96-well plates and incubated for 8 h; then, the medium was removed, and 200 μL of serum-free DMEM medium containing 2% GloSensor cAMP substrate (Promega) was added. After 2 h incubation, the transfected cells were stimulated with different concentrations of ligands together with […]. The luminescence was recorded using a Multimode Plate Reader (En Vision, PerkinElmer).

LPS-activated BV-2 cells = experiment: Cell morphology determination; type: cell-based; conditions: 10 μM, LPS 200 ng/ml, 24 h
Protocol: BV-2 cells were seeded at a density of 2.5×10^5 cells per milliliter in 6-well plates and incubated for 12 h. Cells were incubated with CIAC001 (10 μM) in the absence or presence of LPS (200 ng/ml) for 24 h. The images of BV-2 cells were taken with an inverted microscope (Ts2-FL, Nikon Corporation, Tokyo, Japan) and analyzed by ImageJ. Statistic data are counted in at least three hundred cells.

[1] = system: morphine-conditioned mice; experiment: Morphine-induced conditioned place preference (CPP); type: in vivo; conditions: 0.2 mg/kg i.p.
Protocol: Conditional place conditioning (CPP) was conducted using the classic 10-consecutive-day procedure. On days 1 and 2, each mouse was separately placed into the CPP apparatus for 15 min to habituate the apparatus. On day 3 (preconditioning), the time spent in each compartment was recorded to determine any preference for the two compartments. Mice were divided into three groups: vehicle group, 7.5 mg/kg morphine, as well as 7.5 mg/kg morphine+0.2 mg/kg CIAC001. During the conditioning phase, mice were separately isolated in the compartment for 30 min on 6 consecutive days. Mice were given morphine on days 4, 6, and 8, and vehicle (5 mL/kg) was administered on days 5, 7, and 9. The postconditioning phase was carried out 24 h after the last conditioning session. Each mouse was placed in the apparatus and explored freely, and the time spent in each compartment was recorded for 15 min. The CPP score(s) was calculated using the time spent in the drug-paired compartment minus the time spent in the vehicle-paired compartment.

[2] = target: T2, nuclear PKM2 in BV-2 cells (Mus musculus, UniProt P52480); experiment: Subcellular localization of PKM2; type: cell-based; conditions: BV-2, LPS 200 ng/mL, 10 μM, 6 h
T2 construct: endogenous in cells; host or cells: BV-2 cells
Protocol: BV-2 cells were treated with 200 ng/mL LPS and 10 μM CIAC001 for 6 h. Cells were washed, harvested with ice-cold PBS, and centrifuged at 800 g for 5 min at 4° C. Cells were lysed in cytoplasmic lysis buffer (10 mM HEPES pH 7.6, 10 mM KCl, 0.5 mM […], 1.5 mM MgCl2, and 1 mM DTT) plus the protease inhibitor cocktail for 20 min on ice. A final concentration of 0.5% NP40 was added to the lysate and incubated for 2 min on ice. Lysates were centrifuged at 2000 g for 10 min at 4° C., and the supernatants were cytoplasmic lysates. Pellets were washed twice with ice-cold PBS. Nuclear pellets were lysed for 30 min on ice with nuclear lysis buffer (10 mM Tris-HCl pH 7.6, 450 mM NaCl, 2 mM MgCl2, 0.5% NP-40, and 1 mM DTT) plus a protease inhibitor cocktail. Lysates were centrifuged at 12,000 g for 10 min at 4° C., and the supernatants were nuclear lysates. The nuclear lysates were diluted with low-salt buffer (10 mM Tris-HCl pH 7.6 and 2 mM MgCl2) to a final salt concentration of 150 mM in the lysates. The total protein concentrations in the nuclear and cytoplasmic extracts were determined by the BCA assay and then normalized. The lysate supernatants were denatured in 2× Laemmli sample buffer at 100° C. for 8 min for western blotting with the corresponding antibody.

[3] = Pharmacokinetic profiles in brain and plasma after oral administration; type: in vivo, mice; conditions: male, BALB/c, mouse, 10 mg/kg p.o., read-out: B/P ratio
BV-2 cells = experiment: Cellular ATP assay; type: cell-based; conditions: 10 μM, 2 h
Protocol: BV-2 cells were seeded at a density of 5×10^5 cells per well in 6-well plates and incubated for 24 h. BV-2 cells were treated with 10 μM CIAC001 or 10 μM Compound 19b for 2 h. Cellular ATP was measured by an enhanced ATP assay kit (S0027-4, Beyotime Biotechnology Co., Ltd., Shanghai, China).

Tau, TrkB, Syn1, Aβ = experiment: Western blot of Alzheimer's disease markers in mouse hippocampus; type: in vivo; conditions: transgene mice, 0, 0.2, 2, or 20 mg/kg
Protocol: The protein samples from the mouse hippocampus were analyzed for Tau5, p-Tau (T231), p-Tau (S202), p-Tau (S404), p-TrkB (Y705), Syn1, Aβ1-42, and Aβ1-16 protein content using Western blot technique.

lactate in BV-2 culture = experiment: Extracellular lactic acid assay; type: cell-based; conditions: BV-2, 10 μM, LPS 200 ng/mL, 12 h
Protocol: BV-2 cells were seeded at a density of 5×10^5 cells per well in 6-well plates and incubated for 24 h. BV-2 cells were treated with 10 μM CIAC001 or 10 μM Compound 19b in the absence or presence of 200 ng/mL LPS for 12 h. Culture medium was collected and centrifuged (5000 g, 4° C.) for 5 min. The supernates were used for lactic acid contents determination by lactic acid assay kit (A019-2-1, Nanjing Jiancheng Bioengineering Institute).

T2 sequence (P52480 whole entry): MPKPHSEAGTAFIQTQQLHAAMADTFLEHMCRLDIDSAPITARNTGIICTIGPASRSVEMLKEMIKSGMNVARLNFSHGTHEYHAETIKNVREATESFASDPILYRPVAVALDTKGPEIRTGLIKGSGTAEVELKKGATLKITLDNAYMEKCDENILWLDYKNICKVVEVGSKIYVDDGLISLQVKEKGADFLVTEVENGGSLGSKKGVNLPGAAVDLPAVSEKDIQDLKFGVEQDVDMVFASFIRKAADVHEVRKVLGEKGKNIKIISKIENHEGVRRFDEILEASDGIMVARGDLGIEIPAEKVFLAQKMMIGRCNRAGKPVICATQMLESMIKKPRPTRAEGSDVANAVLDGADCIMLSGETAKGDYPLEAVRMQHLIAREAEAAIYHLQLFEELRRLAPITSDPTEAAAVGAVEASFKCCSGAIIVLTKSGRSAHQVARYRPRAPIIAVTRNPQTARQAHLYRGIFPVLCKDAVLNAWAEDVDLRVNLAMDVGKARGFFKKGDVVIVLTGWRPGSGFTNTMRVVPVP
T1 sequence (P21554 whole entry): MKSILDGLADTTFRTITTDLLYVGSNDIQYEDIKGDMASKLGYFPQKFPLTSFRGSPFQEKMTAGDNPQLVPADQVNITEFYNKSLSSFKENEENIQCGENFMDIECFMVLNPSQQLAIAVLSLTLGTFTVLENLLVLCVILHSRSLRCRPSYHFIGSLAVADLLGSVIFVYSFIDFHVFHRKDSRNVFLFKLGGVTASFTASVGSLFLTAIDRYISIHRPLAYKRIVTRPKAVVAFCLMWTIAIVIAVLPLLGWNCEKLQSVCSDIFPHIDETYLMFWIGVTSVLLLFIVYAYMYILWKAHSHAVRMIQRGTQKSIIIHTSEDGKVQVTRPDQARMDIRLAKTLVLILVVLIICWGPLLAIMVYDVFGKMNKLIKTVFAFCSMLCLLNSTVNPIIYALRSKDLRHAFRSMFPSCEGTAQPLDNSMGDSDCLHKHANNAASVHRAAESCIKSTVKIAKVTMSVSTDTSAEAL

C=C(C)[C@@H]1CCC(C)=C[C@H]1c1c(O)cc(C(C)n2nccn2)cc1O (stereo partly drawn) [CIAC001, (1′R,2′R)-4-(1-(2H-1,2,3-Triazol-2-yl)ethyl)-5′-methyl-2′-(prop-1-en-2-yl)-1′,2′,3′,4′-tetrahydro-[1,1′-biphenyl]-2,6-diol]
grooming and rubbing behaviors (open field) (Open field test): No apparent differences
motor activity (open field) (Open field test): No apparent differences
CB1 receptor activity (CB1 Receptor): no apparent CB1/CB2 activity
LPS-induced morphological changes of microglia (LPS-activated BV-2 cells): considerably reversed
expression of morphine-induced CPP [1]: substantially decreased; also recorded: ameliorated
LPS-induced translocation of nuclear PKM2 [2]: completely reversed; also recorded: inhibited LPS-induced translocation of nuclear PKM2
Kp at 0.083 h ([3]; 0.083 h): 2.07 ± 0.907
Kp at 0.25 h ([3]; 0.25 h): 2.78 ± 0.389
ATP level (BV-2 cells): increase the ATP level
Syn1 and Aβ levels (Tau, TrkB, Syn1, Aβ): reduces Syn1 and Aβ levels
Tau and TrkB phosphorylation (Tau, TrkB, Syn1, Aβ): inhibits Tau and TrkB phosphorylation
LPS-induced lactate release (lactate in BV-2 culture): significantly inhibited
